Source: ChEMBL document CHEMBL1201862, “PubChem BioAssay data set” (2004)
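Exposure lasted 48 hours, with cells grown in 96-well plates and compounds tested at five concentrations. GI50 marks 50% less growth.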 The source made the active and inactive calls. Rule as the data show it: active = GI50 up to about 1.1 µM and inactive = higher.

Key:
Experiment in all cases: growth of human tumour cells (NCI), 48 h
DMS-273 = tested on: DMS-273
SK-MEL-28 = tested on: SK-MEL-28
HCT-116 = tested on: HCT-116
CAKI-1 = tested on: CAKI-1
SW-620 = tested on: SW-620
IGROV-1 = tested on: IGROV-1
DLD-1 = tested on: DLD-1
NCI-H460 = tested on: NCI-H460
HCT-15 = tested on: HCT-15
HT-29 = tested on: HT-29
NCI-H522 = tested on: NCI-H522
U-251 = tested on: U-251
CCRF-CEM = tested on: CCRF-CEM
SR = tested on: SR
LOX IMVI = tested on: LOX IMVI
HOP-92 = tested on: HOP-92
NCI-H23 = tested on: NCI-H23
COLO 205 = tested on: COLO 205
SF-295 = tested on: SF-295
A549 = tested on: A549
OVCAR-3 = tested on: OVCAR-3
OVCAR-8 = tested on: OVCAR-8
SNB-78 = tested on: SNB-78
UACC-257 = tested on: UACC-257
SF-539 = tested on: SF-539
OVCAR-5 = tested on: OVCAR-5
UACC-62 = tested on: UACC-62
SK-OV-3 = tested on: SK-OV-3
DMS-114 = tested on: DMS-114
UO-31 = tested on: UO-31
KM12 = tested on: KM12
MOLT-4 = tested on: MOLT-4
NCI-H226 = tested on: NCI-H226
HCC 2998 = tested on: HCC 2998
Malme-3M = tested on: Malme-3M
LXFL 529 = tested on: LXFL 529
SN12C = tested on: SN12C
A498 = tested on: A498
SNB-75 = tested on: SNB-75
TK-10 = tested on: TK-10
HOP-18 = tested on: HOP-18
M14 = tested on: M14
SK-MEL-2 = tested on: SK-MEL-2
HOP-62 = tested on: HOP-62
786-0 = tested on: 786-0
SK-MEL-5 = tested on: SK-MEL-5
RXF 393 = tested on: RXF 393
OVCAR-4 = tested on: OVCAR-4
ACHN = tested on: ACHN
SF-268 = tested on: SF-268
HL-60 = tested on: HL-60
SNB-19 = tested on: SNB-19
K562 = tested on: K562
KM-20L2 = tested on: KM-20L2
RPMI-8226 = tested on: RPMI-8226
M19-MEL = tested on: M19-MEL
DU-145 = tested on: DU-145
NCI/ADR-RES = tested on: NCI/ADR-RES
MDA-MB-435 = tested on: MDA-MB-435
MCF7 = tested on: MCF7
MDA-MB-231 = tested on: MDA-MB-231
T47D = tested on: T47D
PC-3 = tested on: PC-3
BT-549 = tested on: BT-549
MDA-N = tested on: MDA-N
Hs-578T = tested on: Hs-578T
EKVX = tested on: EKVX

CN(C)CCSc1nccc(-c2cc3ccccc3s2)n1
GI50 (DMS-273): 15.9 µM (inactive) | GI50 (SK-MEL-28): 20 µM (inactive) | GI50 (HCT-116): 24.4 µM (inactive) | GI50 (CAKI-1): 25.8 µM (inactive) | GI50 (SW-620): 19 µM (inactive) | GI50 (IGROV-1): 42.3 µM (inactive) | GI50 (DLD-1): 32.6 µM (inactive) | GI50 (NCI-H460): 13.8 µM (inactive) | GI50 (HCT-15): 18.6 µM | GI50 (HT-29): 9.06 µM (inactive) | GI50 (NCI-H522): 20.1 µM (inactive) | GI50 (U-251): 20.2 µM (inactive) | GI50 (CCRF-CEM): 20 µM (inactive) | GI50 (SR): 19.2 µM (inactive) | GI50 (LOX IMVI): 17.1 µM (inactive) | GI50 (HOP-92): 2.87 µM (inactive) | GI50 (NCI-H23): > 10 µM (inactive) | GI50 (COLO 205): 17.2 µM (inactive) | GI50 (SF-295): 16.2 µM (inactive) | GI50 (A549): 17.6 µM (inactive) | GI50 (OVCAR-3): 44.5 µM (inactive) | GI50 (OVCAR-8): 22.3 µM (inactive) | GI50 (SNB-78): 16.3 µM (inactive) | GI50 (UACC-257): > 10 µM (inactive) | GI50 (SF-539): 18.2 µM (inactive) | GI50 (OVCAR-5): 27.2 µM (inactive) | GI50 (UACC-62): 20.4 µM (inactive) | GI50 (SK-OV-3): 37.3 µM (inactive) | GI50 (DMS-114): 23.2 µM (inactive) | GI50 (UO-31): 19.1 µM (inactive) | GI50 (KM12): 19.3 µM (inactive) | GI50 (MOLT-4): 26.2 µM (inactive) | GI50 (NCI-H226): 14.9 µM (inactive) | GI50 (HCC 2998): 15.7 µM (inactive) | GI50 (Malme-3M): 19.5 µM (inactive) | GI50 (LXFL 529): 16.8 µM (inactive) | GI50 (SN12C): 30.4 µM (inactive) | GI50 (A498): 20.1 µM (inactive) | GI50 (SNB-75): 54 µM (inactive) | GI50 (TK-10): > 10 µM (inactive) | GI50 (HOP-18): < 0.01 µM (active) | GI50 (M14): 15.6 µM (inactive) | GI50 (SK-MEL-2): 17.3 µM (inactive) | GI50 (HOP-62): 23.8 µM (inactive) | GI50 (786-0): 24.2 µM (inactive) | GI50 (SK-MEL-5): 14.3 µM (inactive) | GI50 (RXF 393): 18.5 µM (inactive) | GI50 (OVCAR-4): 38.5 µM (inactive)

NC1=NS(=O)(=O)Nc2nc(-c3cccs3)[nH]c21
GI50 (DMS-273): > 100 µM (inactive) | GI50 (SK-MEL-28): > 100 µM (inactive) | GI50 (HCT-116): > 100 µM (inactive) | GI50 (CAKI-1): > 100 µM (inactive) | GI50 (SW-620): > 100 µM (inactive) | GI50 (ACHN): > 100 µM (inactive) | GI50 (IGROV-1): > 100 µM (inactive) | GI50 (DLD-1): > 100 µM (inactive) | GI50 (NCI-H460): > 100 µM (inactive) | GI50 (HCT-15): > 100 µM | GI50 (HT-29): > 100 µM (inactive) | GI50 (NCI-H522): > 100 µM (inactive) | GI50 (U-251): > 100 µM (inactive) | GI50 (CCRF-CEM): > 100 µM (inactive) | GI50 (SR): > 100 µM (inactive) | GI50 (LOX IMVI): > 100 µM (inactive) | GI50 (HOP-92): > 100 µM (inactive) | GI50 (NCI-H23): > 100 µM (inactive) | GI50 (SF-268): > 100 µM (inactive) | GI50 (COLO 205): > 100 µM (inactive) | GI50 (SF-295): > 100 µM (inactive) | GI50 (A549): > 100 µM (inactive) | GI50 (OVCAR-3): > 100 µM (inactive) | GI50 (OVCAR-8): > 100 µM (inactive) | GI50 (SF-539): > 100 µM (inactive) | GI50 (HL-60): > 100 µM (inactive) | GI50 (SNB-19): > 100 µM (inactive) | GI50 (OVCAR-5): > 100 µM (inactive) | GI50 (UACC-62): > 100 µM (inactive) | GI50 (SK-OV-3): > 100 µM (inactive) | GI50 (UO-31): > 100 µM (inactive) | GI50 (KM12): > 100 µM (inactive) | GI50 (K562): > 100 µM (inactive) | GI50 (MOLT-4): > 100 µM (inactive) | GI50 (HCC 2998): > 100 µM (inactive) | GI50 (Malme-3M): > 100 µM (inactive) | GI50 (LXFL 529): > 100 µM (inactive) | GI50 (SN12C): > 100 µM (inactive) | GI50 (A498): > 100 µM (inactive) | GI50 (SNB-75): > 100 µM (inactive) | GI50 (TK-10): > 100 µM (inactive) | GI50 (HOP-18): > 100 µM (inactive) | GI50 (M14): > 100 µM (inactive) | GI50 (SK-MEL-2): > 100 µM (inactive) | GI50 (KM-20L2): > 100 µM (inactive) | GI50 (RPMI-8226): > 100 µM (inactive) | GI50 (HOP-62): > 100 µM (inactive) | GI50 (M19-MEL): > 100 µM (inactive) | GI50 (786-0): > 100 µM (inactive) | GI50 (SK-MEL-5): > 100 µM (inactive) | GI50 (RXF 393): > 100 µM (inactive) | GI50 (OVCAR-4): > 100 µM (inactive)

CC1(O)CC2(O)C=CC3=C(C(=O)c4cccc(O)c4C3=O)C2(O)C(=O)C1O (stereo unspecified)
GI50 (DMS-273): 5.08 µM (inactive) | GI50 (SK-MEL-28): 1.69 µM (inactive) | GI50 (HCT-116): 0.863 µM (active) | GI50 (CAKI-1): 0.91 µM (active) | GI50 (SW-620): 0.75 µM (active) | GI50 (ACHN): 1.63 µM (inactive) | GI50 (IGROV-1): 4.6 µM (inactive) | GI50 (DLD-1): 0.791 µM (active) | GI50 (NCI-H460): 15.6 µM (inactive) | GI50 (DU-145): 18.4 µM (inactive) | GI50 (HCT-15): 1.28 µM | GI50 (HT-29): 2.43 µM (inactive) | GI50 (NCI-H522): 0.124 µM (active) | GI50 (U-251): 4.04 µM (inactive) | GI50 (CCRF-CEM): 0.206 µM (active) | GI50 (SR): 2.3 µM (inactive) | GI50 (NCI/ADR-RES): 7.83 µM (inactive) | GI50 (MDA-MB-435): 1.8 µM (inactive) | GI50 (LOX IMVI): 1.47 µM (inactive) | GI50 (MCF7): 0.624 µM (active) | GI50 (HOP-92): 1.07 µM (active) | GI50 (NCI-H23): 2.92 µM (inactive) | GI50 (SF-268): 5.46 µM (inactive) | GI50 (COLO 205): 0.152 µM (active) | GI50 (MDA-MB-231): 3.31 µM (inactive) | GI50 (SF-295): 13.6 µM (inactive) | GI50 (A549): 9.95 µM (inactive) | GI50 (T47D): 1.64 µM (inactive) | GI50 (OVCAR-3): 2.28 µM (inactive) | GI50 (OVCAR-8): 3.56 µM (inactive) | GI50 (UACC-257): 1.25 µM (inactive) | GI50 (SF-539): 5.5 µM (inactive) | GI50 (HL-60): 0.478 µM (active) | GI50 (SNB-19): 16.6 µM (inactive) | GI50 (OVCAR-5): 5.04 µM (inactive) | GI50 (PC-3): 6 µM (inactive) | GI50 (UACC-62): 2.94 µM (inactive) | GI50 (SK-OV-3): 15.2 µM (inactive) | GI50 (DMS-114): 1.67 µM (inactive) | GI50 (UO-31): 1.99 µM (inactive) | GI50 (KM12): 8 µM (inactive) | GI50 (K562): 0.94 µM (active) | GI50 (MOLT-4): 0.56 µM (active) | GI50 (NCI-H226): 10.6 µM (inactive) | GI50 (HCC 2998): 4.09 µM (inactive) | GI50 (Malme-3M): 0.406 µM (active) | GI50 (BT-549): 1.17 µM (inactive) | GI50 (LXFL 529): 0.495 µM (active) | GI50 (SN12C): 3.28 µM (inactive) | GI50 (A498): 7.26 µM (inactive) | GI50 (SNB-75): 8.38 µM (inactive) | GI50 (TK-10): 1.73 µM (inactive) | GI50 (HOP-18): 1.7 µM (inactive) | GI50 (MDA-N): 1.78 µM (inactive) | GI50 (M14): 1.37 µM (inactive) | GI50 (SK-MEL-2): 4.18 µM (inactive) | GI50 (KM-20L2): 1.16 µM (inactive) | GI50 (Hs-578T): 3.1 µM (inactive) | GI50 (EKVX): 2.44 µM (inactive) | GI50 (RPMI-8226): 1.26 µM (inactive) | GI50 (HOP-62): 21.6 µM (inactive) | GI50 (M19-MEL): 0.646 µM (active) | GI50 (786-0): 1.96 µM (inactive) | GI50 (SK-MEL-5): 3.3 µM (inactive) | GI50 (RXF 393): 0.964 µM (active) | GI50 (OVCAR-4): 1.51 µM (inactive)
